What is called IC50 is the concentration that gives 50% inhibition.

SMILES strings stand for the structures.

Results on 14 compounds are retold here after patent publication US12319672B2, “Alpha-D-galactopyranoside derivatives” (Idorsia Pharmaceuticals Ltd, priority 2019, dated 2025).

One assay deals with human Gal-1 (hGal-1). In words: Competitive binding assay: binding of biotinylated hGal-1 to microplate-adsorbed asialofetuin (ASF). The conditions noted are these: Activities on hGal-1; mean values of several measurements. In a few lines: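 Compounds diluted in DMSO competed with biotinylated hGal-3 or hGal-1 (300-1000 ng/mL) for binding to plate-adsorbed asialofetuin for 3 h at 4° C. Bound galectin was detected with streptavidin-peroxidase (80 ng/mL, 1 h, 4° C) and ABTS substrate; IC50 reported as mean of several measurements.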
human Gal-1 (hGal-1), sequence (P09382 2-135 limits assumed): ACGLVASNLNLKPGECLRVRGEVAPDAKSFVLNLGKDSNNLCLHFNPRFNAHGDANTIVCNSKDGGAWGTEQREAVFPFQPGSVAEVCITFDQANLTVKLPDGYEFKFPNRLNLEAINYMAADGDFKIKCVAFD

A further assay concerns the target human Gal-3 (hGal-3) (Homo sapiens (Human), UniProt P17931). The assay is described as follows: Competitive binding assay: binding of biotinylated hGal-3 to microplate-adsorbed asialofetuin (ASF). The conditions noted are these: Activity on hGal-3; mean values of several measurements. In a few lines:
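Biotinylated hGal-3 (300-1000 ng/mL) bound to ASF-coated wells with serially diluted compound, 3 h at 4° C. After washing, bound protein was detected with streptavidin-peroxidase (80 ng/mL, 1 h, 4° C) and ABTS substrate; IC50 values are means of several measurements.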

human Gal-3 (hGal-3), sequence (P17931 whole entry): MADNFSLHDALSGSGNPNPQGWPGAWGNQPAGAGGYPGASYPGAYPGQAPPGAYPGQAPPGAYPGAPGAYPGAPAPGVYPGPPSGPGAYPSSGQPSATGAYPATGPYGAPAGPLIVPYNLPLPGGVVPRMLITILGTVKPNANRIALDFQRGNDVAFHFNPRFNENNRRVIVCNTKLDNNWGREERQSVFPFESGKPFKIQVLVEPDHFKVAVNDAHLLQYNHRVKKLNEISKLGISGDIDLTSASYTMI

For `O=c1cc(C2=NO[C@@H](C[C@H]3O[C@H](CO)[C@H](O)[C@H](n4cc(-c5cc(F)c(F)c(F)c5)nn4)[C@H]3O)C2)cc[nH]1` [Example 2.04, 4-((R)-5-(((2R,3R,4R,5R,6R)-3,5-dihydroxy-6-(hydroxymethyl)-4-(4-(3,4,5-trifluorophenyl)-1H-1,2,3-triazol-1-yl)tetrahydro-2H-pyran-2-yl)methyl)-4,5-dihydroisoxazol-3-yl)pyridin-2(1H)-one], the IC50 was found to be 12300 nM at human Gal-1 (hGal-1) and 910 nM at human Gal-3 (hGal-3).

In the case of `O=c1cc(C2=NO[C@H](C[C@H]3O[C@H](CO)[C@H](O)[C@H](n4cc(-c5cc(F)c(F)c(F)c5)nn4)[C@H]3O)C2)cc[nH]1` [Example 2.05, 4-((S)-5-(((2R,3R,4R,5R,6R)-3,5-dihydroxy-6-(hydroxymethyl)-4-(4-(3,4,5-trifluorophenyl)-1H-1,2,3-triazol-1-yl)tetrahydro-2H-pyran-2-yl)methyl)-4,5-dihydroisoxazol-3-yl)pyridin-2(1H)-one], the IC50 on human Gal-1 (hGal-1) turned out to be 390 nM; at human Gal-3 (hGal-3), 190 nM.

Consider `CO[C@@H]1[C@@H](n2cc(-c3cc(F)c(F)c(F)c3)nn2)[C@@H](O)[C@@H](CO)O[C@@H]1C[C@@H]1CC(c2cc[nH]c(=O)c2)=NO1` [Example 2.07a, 4-((S)-5-(((2R,3R,4S,5R,6R)-5-hydroxy-6-(hydroxymethyl)-3-methoxy-4-(4-(3,4,5-trifluorophenyl)-1H-1,2,3-triazol-1-yl)tetrahydro-2H-pyran-2-yl)methyl)-4,5-dihydroisoxazol-3-yl)pyridin-2(1H)-one], for which the IC50 at human Gal-1 (hGal-1) was 310 nM; on human Gal-3 (hGal-3) it was 260 nM.

For `CO[C@@H]1[C@@H](n2cc(-c3cc(F)c(F)c(F)c3)nn2)[C@@H](O)[C@@H](CO)O[C@@H]1C[C@H]1CC(c2cc[nH]c(=O)c2)=NO1` [Example 2.07b, 4-((R)-5-(((2R,3R,4S,5R,6R)-5-hydroxy-6-(hydroxymethyl)-3-methoxy-4-(4-(3,4,5-trifluorophenyl)-1H-1,2,3-triazol-1-yl)tetrahydro-2H-pyran-2-yl)methyl)-4,5-dihydroisoxazol-3-yl)pyridin-2(1H)-one], the concentration for half-maximal inhibition (IC50) was found to be 11700 nM at human Gal-1 (hGal-1) and 1700 nM at human Gal-3 (hGal-3).

In the case of `O=C(O)[C@H]1CC[C@](O)(c2cc(C[C@H]3O[C@H](CO)[C@H](O)[C@H](n4cc(-c5cc(F)c(F)c(F)c5)nn4)[C@H]3O)no2)CC1` [Example 2.11, (1S,4s)-4-(3-(((2R,3R,4R,5R,6R)-3,5-dihydroxy-6-(hydroxymethyl)-4-(4-(3,4,5-trifluorophenyl)-1H-1,2,3-triazol-1-yl)tetrahydro-2H-pyran-2-yl)methyl)isoxazol-5-yl)-4-hydroxycyclohexane-1-carboxylic acid], the IC50 came out at 13700 nM on human Gal-1 (hGal-1) and 2540 nM on human Gal-3 (hGal-3).

With `O=C1CCC(c2cc(C[C@H]3O[C@H](CO)[C@H](O)[C@H](n4cc(-c5cc(F)c(F)c(F)c5)nn4)[C@H]3O)no2)CC1` [Example 2.12, 4-(3-(((2R,3R,4R,5R,6R)-3,5-dihydroxy-6-(hydroxymethyl)-4-(4-(3,4,5-trifluorophenyl)-1H-1,2,3-triazol-1-yl)tetrahydro-2H-pyran-2-yl)methyl)isoxazol-5-yl)cyclohexan-1-one], the IC50 on human Gal-1 (hGal-1) was 3650 nM; on human Gal-3 (hGal-3), 190 nM.

For the compound `OC[C@H]1O[C@H](Cc2cc(C3CCC(O)CC3)on2)[C@H](O)[C@@H](n2cc(-c3cc(F)c(F)c(F)c3)nn2)[C@H]1O` (stereo partly drawn) [Example 2.13, (2R,3R,4R,5R,6R)-2-((5-(4-hydroxycyclohexyl)isoxazol-3-yl)methyl)-6-(hydroxymethyl)-4-(4-(3,4,5-trifluorophenyl)-1H-1,2,3-triazol-1-yl)tetrahydro-2H-pyran-3,5-diol], the IC50 is 1990 nM on human Gal-1 (hGal-1) and 210 nM on human Gal-3 (hGal-3).

As to `OC[C@H]1O[C@H](Cc2cc(C3CCC(O)CC3)on2)[C@H](O)[C@@H](n2cc(-c3cc(F)c(F)c(F)c3)nn2)[C@H]1O` (stereo partly drawn) [Example 2.14, (2R,3R,4R,5R,6R)-2-((5-((1r,4r)-4-hydroxycyclohexyl)isoxazol-3-yl)methyl)-6-(hydroxymethyl)-4-(4-(3,4,5-trifluorophenyl)-1H-1,2,3-triazol-1-yl)tetrahydro-2H-pyran-3,5-diol], the IC50 turned out to be 4580 nM on human Gal-1 (hGal-1) and 190 nM at human Gal-3 (hGal-3).

For `CCC(=O)O[C@@H]1[C@@H](n2cc(-c3cc(F)c(F)c(F)c3)nn2)[C@@H](O)[C@@H](CO)O[C@@H]1Cc1cc(C2CCN(C(=O)OC(C)(C)C)CC2)on1` [Example 2.15, tert-butyl 4-(3-(((2R,3R,4S,5R,6R)-5-hydroxy-6-(hydroxymethyl)-3-(propionyloxy)-4-(4-(3,4,5-trifluorophenyl)-1H-1,2,3-triazol-1-yl)tetrahydro-2H-pyran-2-yl)methyl)isoxazol-5-yl)piperidine-1-carboxylate], the values for the half-inhibitory concentration (IC50) at human Gal-1 (hGal-1) and at human Gal-3 (hGal-3) were 2140 nM and 95 nM, respectively.

As to `CCC(=O)O[C@@H]1[C@@H](n2cc(-c3cc(F)c(F)c(F)c3)nn2)[C@@H](O)[C@@H](CO)O[C@@H]1Cc1cc(C2CCNCC2)on1` [Example 2.16, (2R,3R,4S,5R,6R)-5-hydroxy-6-(hydroxymethyl)-2-((5-(piperidin-4-yl)isoxazol-3-yl)methyl)-4-(4-(3,4,5-trifluorophenyl)-1H-1,2,3-triazol-1-yl)tetrahydro-2H-pyran-3-yl propionate], the IC50 is 11600 nM on human Gal-1 (hGal-1) and 160 nM at human Gal-3 (hGal-3).

Regarding `CCO[C@@H]1[C@@H](n2cc(-c3cc(F)c(F)c(F)c3)nn2)[C@@H](O)[C@@H](CO)O[C@@H]1Cc1cc(C2CCN(C(=O)OC(C)(C)C)CC2)on1` [Example 2.17, tert-butyl 4-(3-(((2R,3R,4S,5R,6R)-3-ethoxy-5-hydroxy-6-(hydroxymethyl)-4-(4-(3,4,5-trifluorophenyl)-1H-1,2,3-triazol-1-yl)tetrahydro-2H-pyran-2-yl)methyl)isoxazol-5-yl)piperidine-1-carboxylate], the results for the IC50 on human Gal-1 (hGal-1) and at human Gal-3 (hGal-3) were 780 nM and 130 nM, respectively.

For `CCC(=O)O[C@@H]1[C@@H](n2cc(-c3cc(F)c(F)c(F)c3)nn2)[C@@H](O)[C@@H](CO)O[C@@H]1Cc1cc(C2CCNCC2)on1` [Example 2.18, (2R,3R,4S,5R,6R)-5-hydroxy-6-(hydroxymethyl)-2-((5-(piperidin-4-yl)isoxazol-3-yl)methyl)-4-(4-(3,4,5-trifluorophenyl)-1H-1,2,3-triazol-1-yl)tetrahydro-2H-pyran-3-yl propionate], the IC50 on human Gal-1 (hGal-1) worked out at 6300 nM; at human Gal-3 (hGal-3), 220 nM.

Consider `CCCO[C@@H]1[C@@H](n2cc(-c3cc(F)c(F)c(F)c3)nn2)[C@@H](O)[C@@H](CO)O[C@@H]1Cc1cc(C2CCN(C(=O)OC(C)(C)C)CC2)on1` [Example 2.19, tert-butyl 4-(3-(((2R,3R,4S,5R,6R)-5-hydroxy-6-(hydroxymethyl)-3-propoxy-4-(4-(3,4,5-trifluorophenyl)-1H-1,2,3-triazol-1-yl)tetrahydro-2H-pyran-2-yl)methyl)isoxazol-5-yl)piperidine-1-carboxylate], for which the IC50 was determined as 1050 nM on human Gal-1 (hGal-1) and 170 nM at human Gal-3 (hGal-3).

`CCCCO[C@@H]1[C@@H](n2cc(-c3cc(F)c(F)c(F)c3)nn2)[C@@H](O)[C@@H](CO)O[C@@H]1Cc1cc(C2CCN(C(=O)OC(C)(C)C)CC2)on1` [Example 2.20, tert-butyl 4-(3-(((2R,3R,4S,5R,6R)-3-butoxy-5-hydroxy-6-(hydroxymethyl)-4-(4-(3,4,5-trifluorophenyl)-1H-1,2,3-triazol-1-yl)tetrahydro-2H-pyran-2-yl)methyl)isoxazol-5-yl)piperidine-1-carboxylate]: the values for the IC50 at human Gal-1 (hGal-1) and on human Gal-3 (hGal-3) were 2030 nM and 390 nM, respectively.
